Experimental data published in publication PMC5298231, “The Malaria Parasite's Lactate Transporter PfFNT Is the Target of Antiplasmodial Compounds Identified in Whole Cell Phenotypic Screens” (PLoS Pathogens, 2017).
Like-named read-outs stand apart in the source and are kept apart here.

System: erythrocytes infected with 3D7 trophozoites
Assay type: cell-based, Plasmodium falciparum

COc1ccc2c(c1)OC(O)(C(F)(F)C(F)(F)F)CC2=O (stereo not shown) [MMV007839]
Intracellular NADH level, treated vs untreated (6 μM): decreased | Intracellular orotate level, treated vs untreated (6 μM): decreased | Intracellular orotidine-5-phosphate level, treated vs untreated (6 μM): decreased | Intracellular pyruvate level, treated vs untreated (6 μM): significant elevation | Intracellular sn-glycerol-3-phosphate level, treated vs untreated (6 μM): significant elevation | Increase in lactate abundance in treated relative to untreated infected erythrocytes (6 μM, at each time point (1 h, 3 h, 6 h)): 6 fold | 1-3 (2-3)-Bisphopshateglycerate, Average (1hr): 0.8283 | 2-Hydroxyglutarate, Average (1hr): -0.2432 | 2-Ketoglutarate, Average (1hr): -0.436 | 3-Phoshoglycerate, Average (1hr): 0.004248 | 3-Phospho-serine, Average (1hr): -0.2778 | 4-Aminobutanoate, Average (1hr): 1.193 | 5-Phosphoribosyl-Pyrophosphate, Average (1hr): 0.3507 | 6-Phosphogluconate, Average (1hr): -0.04985 | ADP, Average (1hr): -0.09347 | AMP, Average (1hr): 0.1805 | ATLS, Average (1hr): 0.06136 | ATP, Average (1hr): -0.05715 | Acetyl-CoA, Average (1hr): -0.4647 | Acetyl-L-alanine, Average (1hr): 0.1907 | Adenine, Average (1hr): -0.6208 | Arginine, Average (1hr): 0.574 | Asparagine, Average (1hr): 0.04802 | Aspartate, Average (1hr): 0.001665 | CDP, Average (1hr): -0.01089 | CDP-ethanolamine, Average (1hr): 0.2765 | CMP, Average (1hr): 0.1684 | CTP, Average (1hr): -0.2804 | Cholesteryl sulfate, Average (1hr): -0.2972 | Citrate, Average (1hr): -0.1229 | CoA, Average (1hr): -0.4384 | Cyclic AMP, Average (1hr): -0.8135 | Cytidine, Average (1hr): -0.7749 | DALT, Average (1hr): -0.5028 | DEVG, Average (1hr): 0.001555 | DGLA, Average (1hr): -0.4525 | DLS, Average (1hr): -0.423 | Deoxycytidine, Average (1hr): 1.92 | Dihydroorotate, Average (1hr): -0.5278 | ESFG, Average (1hr): 0.4045 | EVGG, Average (1hr): 0.01776 | Erythrose 4-Phosphate, Average (1hr): -0.3514 | FAD, Average (1hr): -0.08791 | FMN, Average (1hr): -0.2425 | Farnesyl diphosphate, Average (1hr): -0.0002912 | Folate, Average (1hr): -0.2316 | Fructose-1-6-Bisphosphate, Average (1hr): 1.122 | Fructose-6-Phosphate, Average (1hr): 0.08818 | GDP, Average (1hr): -0.6846 | GDP-mannose, Average (1hr): 0.01571 | GMP, Average (1hr): -1.125 | GTP, Average (1hr): -0.5732 | Geranylgeranyl pyrophosphate, Average (1hr): -0.5786 | Glucono-1-4-Lactone, Average (1hr): 1.593 | Glucose-6-Phosphate, Average (1hr): -0.1863 | Glutamate, Average (1hr): 0.1005 | Glutamine, Average (1hr): 0.7703 | Glutathione Disulfide, Average (1hr): 0.1943 | Glutathione, Average (1hr): -0.1919 | Glyceraldehyde 3-Phosphate, Average (1hr): -0.7606 | Glycerone Phosphate, Average (1hr): 0.5926 | HLD, Average (1hr): -0.3486 | HVDD, Average (1hr): -0.6691 | Histidine, Average (1hr): 0.5758 | Homoserine, Average (1hr): 0.3097 | Hydroxy-L-proline, Average (1hr): 0.2443 | Hypoxanthine, Average (1hr): 0.3704 | IDP, Average (1hr): -0.1758 | IMP, Average (1hr): -0.02277 | Inosine, Average (1hr): 0.5137 | Isoleucine, Average (1hr): 0.3056 | LD, Average (1hr): 0.3825 | Lactate, Average (1hr): 2.358 | Leucine, Average (1hr): 0.1553 | Lysine, Average (1hr): 1.68 | Malate, Average (1hr): 0.1358 | Mannitol, Average (1hr): 0.0108 | Methionine, Average (1hr): 0.2615 | Myristic acid, Average (1hr): 0.2261 | N-Acetyl-glutamate, Average (1hr): -0.007377 | N-Carbamoyl-L-Aspartate, Average (1hr): -1.378 | NAD+, Average (1hr): 0.03204 | NADH, Average (1hr): -1.36 | NADP+, Average (1hr): -0.2617 | Ornithine, Average (1hr): 0.2172 | Orotate, Average (1hr): -1.216 | Orotidine 5-Phosphate, Average (1hr): -1.5 | Orotidine, Average (1hr): -0.4366 | PAEF, Average (1hr): -0.4364 | PD, Average (1hr): 0.2765 | PDAV, Average (1hr): 0.344 | PE, Average (1hr): 1.21 | PEE, Average (1hr): 0.2418 | PHF, Average (1hr): 1.069 | PPVQ, Average (1hr): 0.02129 | PVNF, Average (1hr): -0.3384 | PVQ, Average (1hr): 0.8749 | PVQA, Average (1hr): -0.7385 | Pantothenate, Average (1hr): -0.01312 | Phenylalanine, Average (1hr): 0.1979 | Phosphoenolpyruvate, Average (1hr): 0.299 | Pipecolate, Average (1hr): 0.4539 | Proline, Average (1hr): 0.1646 | Pyridoxine, Average (1hr): 0.1656 | Pyruvate, Average (1hr): 1.42 | Ribose-5-Phosphate, Average (1hr): 0.9115 | S-Adenosyl-L-homocysteine, Average (1hr): -0.1282 | SDGLA, Average (1hr): -0.148 | SFGD, Average (1hr): -0.0354 | Sedoheptulose-1/7-Phosphate, Average (1hr): 0.1578 | Serine, Average (1hr): 0.004434 | Succinate Semialdehyde, Average (1hr): -0.3802 | Succinate, Average (1hr): 0.4975 | TNVK, Average (1hr): -0.9736 | Threonine, Average (1hr): 0.4202 | Tryptophan, Average (1hr): 0.09509 | Tyrosine, Average (1hr): 0.1697 | UDP, Average (1hr): -0.1565 | UDP-N-acetyl-D-glucosamine, Average (1hr): 0.0845 | UDP-glucose, Average (1hr): -0.08513 | UMP, Average (1hr): -0.3602 | Uracil, Average (1hr): -0.4869 | Valine, Average (1hr): 0.1364 | Xanthine, Average (1hr): 0.3309 | dADP, Average (1hr): -0.3244 | dATP, Average (1hr): 0.05147 | dCDP, Average (1hr): 0.3024 | dGMP, Average (1hr): 0.08489 | dTMP, Average (1hr): -0.02247 | dTTP, Average (1hr): 0.2046 | dUMP, Average (1hr): 1.26 | myo-Inositol, Average (1hr): -0.07002 | sn-Glycerol 3-Phosphate, Average (1hr): 1.379 | sn-glycero-3-Phospho-1-inositol, Average (1hr): -0.128 | 1-3 (2-3)-Bisphopshateglycerate, Average (3hr): 0.8355 | 2-Hydroxyglutarate, Average (3hr): -0.6103 | 2-Ketoglutarate, Average (3hr): -0.8232 | 3-Phoshoglycerate, Average (3hr): 0.07426 | 3-Phospho-serine, Average (3hr): -0.4035 | 4-Aminobutanoate, Average (3hr): 0.8488 | 5-Phosphoribosyl-Pyrophosphate, Average (3hr): 0.5077 | 6-Phosphogluconate, Average (3hr): -0.2282 | ADP, Average (3hr): -0.7166 | AMP, Average (3hr): -0.5704 | ATLS, Average (3hr): -0.2347 | ATP, Average (3hr): -0.2177 | Acetyl-CoA, Average (3hr): -0.7235 | Acetyl-L-alanine, Average (3hr): -0.3599 | Adenine, Average (3hr): -0.8446 | Arginine, Average (3hr): 0.2396 | Asparagine, Average (3hr): -0.1753 | Aspartate, Average (3hr): -0.3736 | CDP, Average (3hr): -0.5752 | CDP-ethanolamine, Average (3hr): 0.02366 | CMP, Average (3hr): -0.08882 | CTP, Average (3hr): -0.3119 | Cholesteryl sulfate, Average (3hr): -0.1335 | Citrate, Average (3hr): -0.1028 | CoA, Average (3hr): -0.556 | Cyclic AMP, Average (3hr): -0.7854 | Cytidine, Average (3hr): -0.2914 | DALT, Average (3hr): -0.8981 | DEVG, Average (3hr): -0.08263 | DGLA, Average (3hr): -0.7349 | DLS, Average (3hr): -0.6175 | Deoxycytidine, Average (3hr): 1.594 | Dihydroorotate, Average (3hr): -1.064 | ESFG, Average (3hr): -0.07747 | EVGG, Average (3hr): -0.1694 | Erythrose 4-Phosphate, Average (3hr): -0.2579 | FAD, Average (3hr): -0.4239 | FMN, Average (3hr): -0.4985 | Farnesyl diphosphate, Average (3hr): -0.04123 | Folate, Average (3hr): -0.3602 | Fructose-1-6-Bisphosphate, Average (3hr): 1.146 | Fructose-6-Phosphate, Average (3hr): 0.05598 | GDP, Average (3hr): -1.202 | GDP-mannose, Average (3hr): -0.4414 | GMP, Average (3hr): -1.665 | GTP, Average (3hr): -0.7051 | Geranylgeranyl pyrophosphate, Average (3hr): -0.6827 | Glucono-1-4-Lactone, Average (3hr): 1.992 | Glucose-6-Phosphate, Average (3hr): -0.3489 | Glutamate, Average (3hr): -0.07518 | Glutamine, Average (3hr): 0.8027 | Glutathione Disulfide, Average (3hr): -0.1266 | Glutathione, Average (3hr): -0.02749 | Glyceraldehyde 3-Phosphate, Average (3hr): -0.5897 | Glycerone Phosphate, Average (3hr): 0.4029 | HLD, Average (3hr): -0.9223 | HVDD, Average (3hr): -1.392 | Histidine, Average (3hr): 0.6908 | Homoserine, Average (3hr): 0.249 | Hydroxy-L-proline, Average (3hr): 0.1081 | Hypoxanthine, Average (3hr): 0.2683 | IDP, Average (3hr): 0.1036 | IMP, Average (3hr): -0.04113 | Inosine, Average (3hr): 0.2492 | Isoleucine, Average (3hr): 0.01345 | LD, Average (3hr): 0.008648 | Lactate, Average (3hr): 2.632 | Leucine, Average (3hr): -0.1293 | Lysine, Average (3hr): 0.8307 | Malate, Average (3hr): -0.2233 | Mannitol, Average (3hr): -0.2308 | Methionine, Average (3hr): -0.1652 | Myristic acid, Average (3hr): -0.3456 | N-Acetyl-glutamate, Average (3hr): -0.8123 | N-Carbamoyl-L-Aspartate, Average (3hr): -1.502 | NAD+, Average (3hr): 0.03216 | NADH, Average (3hr): -1.72
